Laboratory results as given in publication PMC7377239, “Cardiovascular Effects of Polychlorinated Biphenyls and Their Major Metabolites” (Environmental Health Perspectives, 2020).
Where a name gives a salt, the structure may show the parent alone. Read-outs that look alike come from different tables or passages of the source.

Tested on: iCell cardiomyocytes (human iPSC-derived cardiomyocytes)
Assay: Intracellular Ca2+ flux / beating parameters in iCell cardiomyocytes (FLIPR tetra), 90 min or 24 h
Format: cell-based
Settings: Homo sapiens, Cardiomyocyte, 0.00 µM = 100.00; for activity at 0.1 µM: 0.10 µM
Method in brief: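 Gelatin-plated iCell cardiomyocytes (5,000/well) were dye-loaded for 2 h at 37 °C, then exposed for 90 min or 24 h to PCBs/metabolites (5× plates at 0.05–500 µM; 0.5% DMSO final) in triplicate. Ca2+ flux was read for 100 s at 8 Hz and 37 °C. Peak height, frequency, spacing CV and decay/rise ratio were vehicle-normalized and fitted with a four-parameter logistic model, with POD set at 1 SD of vehicle.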

[1] = 1.5 h, read-out: cm.amp.avg.90min
[2] = 1.5 h, read-out: cm.amp.cv.90min
[3] = 1.5 h, read-out: cm.decay.rise.90min
[4] = 1.5 h, read-out: cm.spacing.cv.90min
[5] = 24 h, read-out: cm.amp.avg.24hrs
[6] = 24 h, read-out: cm.amp.cv.24hrs
[7] = 24 h, read-out: cm.decay.rise.24hrs
[8] = 24 h, read-out: cm.spacing.cv.24hrs

How did the activity at 0.01 µM [1] turn out when `O=S(=O)(O)Oc1ccc(-c2ccc(Cl)cc2)cc1` [4'-yl PCB 3 sulfate] was run?
Its activity at 0.01 µM is 91%.

What about the activity at 0.01 µM [2] of the same compound?
The activity at 0.01 µM was 97%.

And the activity at 0.01 µM (1.5 h, read-out: cm.bpm.90min)?
Its activity at 0.01 µM is 100%.

What about the activity at 0.01 µM [3] of the same compound?
The activity at 0.01 µM was 100%.

And the activity at 0.01 µM [4]?
Its activity at 0.01 µM is 138%.

And the activity at 0.1 µM [1]?
The activity at 0.1 µM was 100%.

What about the activity at 0.1 µM [2] of the same compound?
Its activity at 0.1 µM is 92%.

What about the activity at 0.1 µM (1.5 h, read-out: cm.bpm.90min) of the same compound?
Its activity at 0.1 µM is 100%.

What about the activity at 0.1 µM [3] of the same compound?
The activity at 0.1 µM was 98.1%.

What about the activity at 0.1 µM [4] of the same compound?
The activity at 0.1 µM was 107%.

What about the activity at 1 µM [1] of the same compound?
Its activity at 1 µM is 98%.

And the activity at 1 µM [2]?
The activity at 1 µM was 75.3%.

And the activity at 1 µM (1.5 h, read-out: cm.bpm.90min)?
Its activity at 1 µM is 100%.

And the activity at 1 µM [3]?
The activity at 1 µM was 95.6%.

What about the activity at 1 µM [4] of the same compound?
The activity at 1 µM was 90.9%.

What about the activity at 10 µM [1] of the same compound?
The activity at 10 µM was 93%.

What about the activity at 10 µM [2] of the same compound?
Its activity at 10 µM is 105%.

What about the activity at 10 µM (1.5 h, read-out: cm.bpm.90min) of the same compound?
Its activity at 10 µM is 104%.

And the activity at 10 µM [3]?
Its activity at 10 µM is 97.7%.

What about the activity at 10 µM [4] of the same compound?
Its activity at 10 µM is 104%.

What about the activity at 100 µM [1] of the same compound?
Its activity at 100 µM is 0%.

What about the activity at 100 µM [2] of the same compound?
Its activity at 100 µM is 0%.

What about the activity at 100 µM (1.5 h, read-out: cm.bpm.90min) of the same compound?
Its activity at 100 µM is 0%.

And the activity at 100 µM [3]?
The activity at 100 µM was 0%.

And the activity at 100 µM [4]?
Its activity at 100 µM is 0%.

What about the activity at 0.01 µM [5] of the same compound?
The activity at 0.01 µM was 114%.

And the activity at 0.01 µM [6]?
The activity at 0.01 µM was 86.7%.

And the activity at 0.01 µM (24 h, read-out: cm.bpm.24hrs)?
The activity at 0.01 µM was 102%.

What about the activity at 0.01 µM [7] of the same compound?
The activity at 0.01 µM was 89.3%.

What about the activity at 0.01 µM [8] of the same compound?
The activity at 0.01 µM was 96.8%.

And the activity at 0.1 µM [5]?
The activity at 0.1 µM was 46.3%.

What about the activity at 0.1 µM [6] of the same compound?
The activity at 0.1 µM was 44.4%.

What about the activity at 0.1 µM (24 h, read-out: cm.bpm.24hrs) of the same compound?
The activity at 0.1 µM was 47.7%.

What about the activity at 0.1 µM [7] of the same compound?
Its activity at 0.1 µM is 52.8%.

And the activity at 0.1 µM [8]?
Its activity at 0.1 µM is 48.2%.

And the activity at 1 µM [5]?
Its activity at 1 µM is 68%.

What about the activity at 1 µM [6] of the same compound?
The activity at 1 µM was 33.8%.

What about the activity at 1 µM (24 h, read-out: cm.bpm.24hrs) of the same compound?
The activity at 1 µM was 46.8%.

What about the activity at 1 µM [7] of the same compound?
Its activity at 1 µM is 51.1%.

And the activity at 1 µM [8]?
Its activity at 1 µM is 55.8%.

What about the activity at 10 µM [5] of the same compound?
The activity at 10 µM was 89.3%.

And the activity at 10 µM [6]?
The activity at 10 µM was 96.4%.

What about the activity at 10 µM (24 h, read-out: cm.bpm.24hrs) of the same compound?
The activity at 10 µM was 101%.

And the activity at 10 µM [7]?
Its activity at 10 µM is 105%.

And the activity at 10 µM [8]?
Its activity at 10 µM is 108%.

What about the activity at 100 µM [5] of the same compound?
The activity at 100 µM was 112%.

And the activity at 100 µM [6]?
The activity at 100 µM was 68.8%.

What about the activity at 100 µM (24 h, read-out: cm.bpm.24hrs) of the same compound?
The activity at 100 µM was 79.2%.

What about the activity at 100 µM [7] of the same compound?
The activity at 100 µM was 113%.

What about the activity at 100 µM [8] of the same compound?
The activity at 100 µM was 103%.

For `O=C1C=CC(=O)C(c2ccc(Cl)cc2)=C1` [4-Cl-BQ, 2-(4-Chlorophenyl)benzo-2,5-quinone], which activity at 0.01 µM [1] is on record?
Its activity at 0.01 µM is 91.7%.

And the activity at 0.01 µM [2]?
Its activity at 0.01 µM is 113%.

And the activity at 0.01 µM (1.5 h, read-out: cm.bpm.90min)?
The activity at 0.01 µM was 103%.

What about the activity at 0.01 µM [3] of the same compound?
Its activity at 0.01 µM is 99.5%.

What about the activity at 0.01 µM [4] of the same compound?
The activity at 0.01 µM was 135%.

What about the activity at 0.1 µM [1] of the same compound?
The activity at 0.1 µM was 92.1%.

What about the activity at 0.1 µM [2] of the same compound?
The activity at 0.1 µM was 88.6%.

And the activity at 0.1 µM (1.5 h, read-out: cm.bpm.90min)?
Its activity at 0.1 µM is 100%.

And the activity at 0.1 µM [3]?
The activity at 0.1 µM was 96.6%.

And the activity at 0.1 µM [4]?
Its activity at 0.1 µM is 99.9%.

And the activity at 1 µM [1]?
Its activity at 1 µM is 92.1%.

What about the activity at 1 µM [2] of the same compound?
Its activity at 1 µM is 105%.

What about the activity at 1 µM (1.5 h, read-out: cm.bpm.90min) of the same compound?
The activity at 1 µM was 95.3%.

And the activity at 1 µM [3]?
The activity at 1 µM was 107%.

What about the activity at 1 µM [4] of the same compound?
Its activity at 1 µM is 104%.

What about the activity at 10 µM [1] of the same compound?
The activity at 10 µM was 101%.

And the activity at 10 µM [2]?
The activity at 10 µM was 118%.

And the activity at 10 µM (1.5 h, read-out: cm.bpm.90min)?
Its activity at 10 µM is 124%.

And the activity at 10 µM [3]?
Its activity at 10 µM is 104%.

What about the activity at 10 µM [4] of the same compound?
Its activity at 10 µM is 225%.

And the activity at 100 µM [1]?
Its activity at 100 µM is 0%.

What about the activity at 100 µM [2] of the same compound?
Its activity at 100 µM is 0%.

And the activity at 100 µM (1.5 h, read-out: cm.bpm.90min)?
Its activity at 100 µM is 0%.

And the activity at 100 µM [3]?
The activity at 100 µM was 0%.

And the activity at 100 µM [4]?
Its activity at 100 µM is 0%.

What about the activity at 0.01 µM [5] of the same compound?
The activity at 0.01 µM was 112%.

What about the activity at 0.01 µM [6] of the same compound?
Its activity at 0.01 µM is 125%.

And the activity at 0.01 µM (24 h, read-out: cm.bpm.24hrs)?
The activity at 0.01 µM was 101%.

And the activity at 0.01 µM [7]?
The activity at 0.01 µM was 85.3%.

And the activity at 0.01 µM [8]?
Its activity at 0.01 µM is 104%.

What about the activity at 0.1 µM [5] of the same compound?
Its activity at 0.1 µM is 97.3%.

And the activity at 0.1 µM [6]?
Its activity at 0.1 µM is 130%.

What about the activity at 0.1 µM (24 h, read-out: cm.bpm.24hrs) of the same compound?
The activity at 0.1 µM was 100%.

And the activity at 0.1 µM [7]?
The activity at 0.1 µM was 96.8%.

And the activity at 0.1 µM [8]?
Its activity at 0.1 µM is 92.5%.

And the activity at 1 µM [5]?
Its activity at 1 µM is 105%.

What about the activity at 1 µM [6] of the same compound?
The activity at 1 µM was 96.8%.

What about the activity at 1 µM (24 h, read-out: cm.bpm.24hrs) of the same compound?
The activity at 1 µM was 93.6%.

What about the activity at 1 µM [7] of the same compound?
Its activity at 1 µM is 103%.

And the activity at 1 µM [8]?
Its activity at 1 µM is 98.4%.

What about the activity at 10 µM [5] of the same compound?
The activity at 10 µM was 45.5%.

And the activity at 10 µM [6]?
Its activity at 10 µM is 56.6%.

What about the activity at 10 µM (24 h, read-out: cm.bpm.24hrs) of the same compound?
Its activity at 10 µM is 64.9%.

And the activity at 10 µM [7]?
The activity at 10 µM was 72.1%.

And the activity at 10 µM [8]?
Its activity at 10 µM is 63.9%.

What about the activity at 100 µM [5] of the same compound?
The activity at 100 µM was 0%.

What about the activity at 100 µM [6] of the same compound?
The activity at 100 µM was 0%.

What about the activity at 100 µM (24 h, read-out: cm.bpm.24hrs) of the same compound?
The activity at 100 µM was 0%.

What about the activity at 100 µM [7] of the same compound?
Its activity at 100 µM is 0%.

What about the activity at 100 µM [8] of the same compound?
The activity at 100 µM was 0%.
